In US8105798B2, “Cytoplasmic activity of retinoid X receptor and its regulation by ligands and dimerization” (The Burnham Institute, priority 2003, dated 2012):
“Also recorded” adds a separate entry of the source. Blank lines part the entries; values can stand above or below the compound they belong to.

Assays:
[1] = tested on: CV-1, MGC80-3, HEK293T and HCT116 cells; assay: apoptosis determined by DAPI staining; assay type: cell-based; conditions: for effect on sulindac sulfide-induced apoptosis: RXRα ligands given with sulindac sulfide
Experimental: To determine the involvement of RXRα in sulindac sulfide-induced apoptosis of cancer cells, its effect on apoptosis of CV-1 cells (available from American Type Cell Culture, Manassas, Va., as accession number CCL-70) in the absence or presence of RXRα transfection was evaluated. FIG. 13a. RXR was cloned into a pGFP.C2 vector (GenBank Accession #: U19281) according to the procedure of Li et al., Science 289, 1159-1164 (2000). CV-1 cells were transfected with or without RXRα prior to treatment with sulindac sulfide (75.micro.M) for 24 hr. […] Louis, Mo., as catalogue number D9542), and the presence of nuclear fragmentation and/or chromatin condensation is an indicator of apoptosis. […] The requirement of RXRαwas also examined using RXRα siRNA SEQ ID No.: 12 approach. MGC80-3 cells, HEK293T (ATCC, accession number CCL-1573) and HCT116 (ATCC, accession number CCL-247) cell lines were transfected with RXRα siRNA or control siRNA using oligofectamine (from Invitrogen, Corp). Cell samples from each cell line were lysed and the cell extracts were prepared by immunoblotting to determine RXRα expression. Cells transfected with RXR.alpha siRNA or control siRNA were treated with sulindac sulfide (75.micro.M) for 24 hr, and apoptosis was determined by DAPI staining.

[2] = biological target: T1, RXRα (Homo sapiens, UniProt P19793); assay: subcellular localization of RXRα by immunostaining / confocal microscopy; assay type: cell-based; conditions: for nuclear export of GFP fusion with amino acids 348-398 of RXRα: HEK293T cells; for GFP-RXRα association with mitochondria (overlay with Mito-RFP) / GFP-RXRα localization: COS-7 cells, 10^-4 M, 4 hours
T1 sequence (P19793 1-462): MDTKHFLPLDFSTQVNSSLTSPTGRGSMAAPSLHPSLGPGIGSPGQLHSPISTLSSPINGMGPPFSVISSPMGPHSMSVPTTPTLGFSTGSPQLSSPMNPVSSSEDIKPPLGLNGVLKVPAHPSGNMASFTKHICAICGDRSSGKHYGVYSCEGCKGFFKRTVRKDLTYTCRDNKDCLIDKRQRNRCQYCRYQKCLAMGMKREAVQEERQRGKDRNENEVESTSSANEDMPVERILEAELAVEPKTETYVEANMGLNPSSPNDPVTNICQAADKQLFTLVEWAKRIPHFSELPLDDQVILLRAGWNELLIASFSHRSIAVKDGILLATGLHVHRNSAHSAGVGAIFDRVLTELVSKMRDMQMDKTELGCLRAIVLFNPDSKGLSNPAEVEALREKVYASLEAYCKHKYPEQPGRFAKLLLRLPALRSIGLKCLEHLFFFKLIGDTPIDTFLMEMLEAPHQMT
Experimental: Expression vector for Flag-RXRα was transfected into the indicated cell line. Cells were then treated with 15d-PGJ2 (5.micro.M) for 3 hr, then immunostained with anti-Flag antibody to detect RXRα Flag-RXRα was visualized by confocal microscopy.
(§1) Expression vectors for Flag-RXRα and GFP-TR3 were transfected into PC12 cells alone or together. Cells were then treated with 15d-PGJ2 (5.micro.M) for 3 hr, then immunostained with anti-Flag antibody to detect RXRα Flag-RXRα and GFP-TR3 were visualized by confocal microscopy, and their images merged.
Cos7 cells were transfected with GFP-RXRα and Mito-REP, and treated with or without 10^-4 M indomethacin or diclofenac for 4 hours. The distribution of GFP-RXRα and Mito-REP was visualized by confocal microscopy.
For example, cells such as LNCaP prostate cancer cells are induced to apoptosis using agents such as the phorbol ester, TPA (12-0-tetradecanolphorbol 13-acetate, Cell Signaling Technology Cat. No.: 9905).
For example, heat shock protein 60 (Hsp60) is a mitochondrial specific protein. […] The treated cells are then incubated with a conjugated secondary antibody and visualized using confocal microscopy. In this example, Cy-3 or FITC conjugated secondary antibodies were used for visualizing the sub-cellular localization of RXRα or Hsp60, respectively.
A GFP-RXRα expression vector was transfected into COS-7 cells and GFP-RXRα was expressed.
A fusion protein created by combining GFP and amino acids 348-398 of RXRα, is transfected into HEK293T cells.
To determine the role of 15d-PGJ2 binding on the new RXR pathway, a confocal microscopy analysis was performed to determine subcellular localization of RXRα in the presence or absence of 15d-PGJ2.
(§2) Because RXR heterodimerizes with TR3, Inventor examined the effect of 15d-PGJ2 on TR3 subcellular localization in PC12 phaeochromocytoma cells.
To determine the mechanism of RXRα mediated apoptosis in the presence of sulindac sulfide, Inventors examined the effect of sulindac sulfide on subcellular localization of RXRα

[3] = tested on: TR3; assay: subcellular localization of TR3 and RXRα/TR3 heterodimer by confocal microscopy; assay type: cell-based
Experimental: as §1, with “FIG. 10 is a series of confocal microscope images of immunostained PC12 cells illustrating that binding of 15d-PGJ2 to RXRα induces translocation of RXRα homodimer/monomer or TR3/RXRα heterodimer from the nucleus to the cytoplasm. Expression” for “Expression”
In the absence of TPA, both TR3 and RXRα reside mainly in the nucleus. […] (FIG. 2).
as §2
Either TR3 alone, RXRα alone or TR3 and RXRα was transfected into HEK293T cells. Cells were then treated with sulindac sulfide (75.micro.M) for 6 hr. RXR.alpha and TR3 localization was determined by immunostaining, and cells were also stained by DAPI. […] Thus, the effect of sulindac sulfide on the cytoplasmic localization of TR3 depends on RXRα expression, probably due to their heterodimerization. Thus, sulindac sulfide induces nuclear export of RXRα and RXRα/TR3 heterodimer. (FIG. 14b).
The effect of sulindac sulfide on mitochondrial targeting of RXRα and TR3 was determined by treating H460 lung cancer cells with 75 micro.M sulindac sulfide for 6 hours and visualization of the cellular localization of these proteins by immunostaining. A two stage detection system was used having either anti-RXR or anti TR3 as a first stage (Santa Cruz Biotechnology and Abgent, respectively). In the absence of treatment, both RXRα and TR3 were found mainly in the nucleus.

[4] = biological target: T2, TR3/RXRα heterodimer (Homo sapiens, UniProt P19793); assay: gel shift assay (EMSA) of TR3/RXRα heterodimer binding to βRARE; assay type: biochemical
T2 construct: made in house; host or cells: in vitro translation
T2 sequence (P22736 whole entry partner, one chain of several): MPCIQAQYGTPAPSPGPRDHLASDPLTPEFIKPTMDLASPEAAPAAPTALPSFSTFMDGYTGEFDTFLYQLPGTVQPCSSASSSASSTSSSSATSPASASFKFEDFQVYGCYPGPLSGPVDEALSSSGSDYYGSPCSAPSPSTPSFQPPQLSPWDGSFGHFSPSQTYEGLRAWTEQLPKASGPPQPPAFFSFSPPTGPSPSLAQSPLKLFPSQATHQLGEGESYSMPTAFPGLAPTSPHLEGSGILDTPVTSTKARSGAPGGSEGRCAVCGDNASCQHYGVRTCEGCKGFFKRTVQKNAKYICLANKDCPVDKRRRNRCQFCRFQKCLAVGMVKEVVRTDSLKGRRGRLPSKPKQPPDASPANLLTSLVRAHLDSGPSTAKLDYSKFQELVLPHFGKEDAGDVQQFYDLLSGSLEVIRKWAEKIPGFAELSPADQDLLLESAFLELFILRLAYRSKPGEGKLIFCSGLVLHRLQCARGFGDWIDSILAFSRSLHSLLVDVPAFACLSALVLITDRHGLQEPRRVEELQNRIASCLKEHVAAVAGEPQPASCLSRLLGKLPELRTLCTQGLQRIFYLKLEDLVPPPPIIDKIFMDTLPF
Experimental: In vitro translated RXRα and TR3 were incubated with 15d-PGJ2 (10^-5 M) for 15 min in the absence or presence of anti-TR3 or anti-RXRα antibody. Following a further incubation with ^32P-radiolabelled βRARE, the reactions were analyzed by EMSA.
To study whether 15d-PGJ2 acted on the TR3/RXRα heterodimer to inhibit the heterodimer activity, Inventor investigated whether 15d-PGJ2 affected binding of the TR3/RXRα heterodimer to the beta.RARE by gel shift assay.
RXRα and TR3 proteins are incubated in the absence or presence of a test compound. Following incubation, the mixture is incubated with ^23P-labeled βretinoic acid response element (βRARE), and the binding of the RXRα/TR3 heterodimer is analyzed by the gel-shift assay. […] The enhancement of the heterodimer binding by a compound will indicate that the compound retains the RXRα/TR3 heterodimer in the nucleus and likely induces transcriptional activity of the heterodimer through its induction of RXRα/TR3 heterodimerization at their LBD dimerization interfaces.

[5] = biological target: T3, RXRα/IKK interaction (Homo sapiens, UniProt P19793); assay: co-immunoprecipitation assay of RXRα with IKK; assay type: cell-based; conditions: HEK293T cells, HA-IKKγ and Flag-RXRα; BI419 10^-6 M, 15d-PGJ2 5 μM, sulindac sulfide 75 μM, 6 hr
T3 construct: expressed in transfected cells; host or cells: HEK293T, pcDNA3 expression vectors
T3 sequence (Q9Y6K9 whole entry partner, one chain of several): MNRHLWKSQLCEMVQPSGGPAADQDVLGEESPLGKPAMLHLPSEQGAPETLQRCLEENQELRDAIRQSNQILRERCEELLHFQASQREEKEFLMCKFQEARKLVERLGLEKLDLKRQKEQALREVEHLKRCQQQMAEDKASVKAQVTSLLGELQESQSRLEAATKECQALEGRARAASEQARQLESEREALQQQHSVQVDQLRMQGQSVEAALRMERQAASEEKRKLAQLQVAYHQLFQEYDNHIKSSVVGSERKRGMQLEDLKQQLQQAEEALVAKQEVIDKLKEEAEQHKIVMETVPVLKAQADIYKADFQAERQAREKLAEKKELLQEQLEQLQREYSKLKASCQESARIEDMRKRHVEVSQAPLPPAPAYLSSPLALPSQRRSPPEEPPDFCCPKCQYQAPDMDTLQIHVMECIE
T3 sequence (O14920 whole entry partner, one chain of several): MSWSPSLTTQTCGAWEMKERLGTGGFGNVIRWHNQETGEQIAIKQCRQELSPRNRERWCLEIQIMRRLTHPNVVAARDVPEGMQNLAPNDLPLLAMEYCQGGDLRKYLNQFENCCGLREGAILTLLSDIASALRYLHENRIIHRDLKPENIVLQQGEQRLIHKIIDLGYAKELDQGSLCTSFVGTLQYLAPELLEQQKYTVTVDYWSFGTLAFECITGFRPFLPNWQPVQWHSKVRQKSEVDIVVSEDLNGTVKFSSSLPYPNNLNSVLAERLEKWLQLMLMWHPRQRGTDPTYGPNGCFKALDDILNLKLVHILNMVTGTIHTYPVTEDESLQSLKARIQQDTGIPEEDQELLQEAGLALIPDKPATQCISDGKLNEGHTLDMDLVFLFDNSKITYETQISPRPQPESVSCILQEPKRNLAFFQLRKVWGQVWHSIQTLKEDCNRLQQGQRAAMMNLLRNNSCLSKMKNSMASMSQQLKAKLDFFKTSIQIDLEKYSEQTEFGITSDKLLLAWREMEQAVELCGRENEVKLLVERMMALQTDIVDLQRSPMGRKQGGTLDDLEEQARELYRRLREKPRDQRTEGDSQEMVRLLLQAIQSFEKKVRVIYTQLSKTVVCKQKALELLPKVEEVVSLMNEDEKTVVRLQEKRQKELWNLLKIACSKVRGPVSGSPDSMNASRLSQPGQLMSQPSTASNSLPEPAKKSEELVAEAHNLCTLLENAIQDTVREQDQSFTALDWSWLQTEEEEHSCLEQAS
Description: IKK is composed of three subunits: IKKα and IKKβ, the catalytic subunits, and IKKγ, a regulatory subunit. IKK activation is required for NF-kB activation through its phosphorylation and degradation of IkB in response to proinflammatory stimuli. In addition, IKK also regulates cellular processes in a NF-kB-independent manner. We examined whether sulindac sulfide-induced cytoplasmic RXRα could interact with IKK. The indicated expression vector (pcDNA3 from Invitrogen, Corp) was transfected into HEK293T cells alone or together. After transfection, cells were treated with sulindac sulfide (75.micro.M) for 6 hr, and the interaction of RXRα and IKKβ was analyzed by co-immunoprecipitation assay. […] (FIG. 17a). The interaction was also illustrated by their cytoplasmic co-localization in cells treated with sulindac sulfide. (FIG. 17b). […] In this example, H460 cells were treated with or without sulindac sulfide (75.micro.M) for 6 hr, and cells were stained for RXRα and IKKβ (FIG. 17c). […] HA-IKKγ and Flag-RXRα expression vectors were transfected into HEK293T cells alone or together. After transfection, cells were treated with a new retinoid (BI419 (10^-6 M), 15d-PGJ2 (5.micro.M), or sulindac sulfide (75.micro.M) for 6 hr. The interaction of RXRα and IKKγ was studied by co-immunoprecipitation assay.

[6] = biological target: T4, RXRα ligand-binding domain (Homo sapiens, UniProt P19793); assay: competition binding assay with [3H]9-cis-RA and RXRα ligand-binding domain
T4 construct: made in house; host or cells: E. coli BL21 (pET vector, Novagen)
T4 sequence (P19793 224-462): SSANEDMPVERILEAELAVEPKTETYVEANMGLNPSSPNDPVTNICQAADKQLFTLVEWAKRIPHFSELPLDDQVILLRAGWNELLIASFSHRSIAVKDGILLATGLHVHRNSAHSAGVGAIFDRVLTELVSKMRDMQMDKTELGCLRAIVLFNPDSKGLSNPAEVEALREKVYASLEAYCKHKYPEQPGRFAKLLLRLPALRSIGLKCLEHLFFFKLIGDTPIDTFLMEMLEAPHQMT
Experimental: FIG. 8 is a dose response analysis illustrating that 15d-PGJ2 binds RXRα with high affinity conducted with 15d-PGJ2 in the competition binding assay. […] After separation of bound from free radioactivity by elution through Sephadex G-25 desalting columns. Bound radioactivity eluted was quantitated by liquid scientillation counting.
Therefore, Inventor investigated the possibility that 15d-PGJ2 bound directly to RXRα […] A dose response analysis (FIG. 8) was conducted with 15d-PGJ2 in the competition binding assay.
LBD expressed in E. coli. […] The reactions were then eluted through a Sephadex G-25 column to separate the bound label from free label and the RXRα LBD-bound label was quantitated by liquid scintillation counting.

[7] = tested on: RARβ expression; assay: RARβ protein expression by Western analysis in cancer cells; assay type: cell-based
Experimental: The indicated cancer cells were treated for 24 h with or without trans-RA (10^-6 M), or 15d-PGJ2 (5.micro.M) or their combination. RARβ protein expression was determined by Western analysis.
The effect of sulindac sulfide on RXR transactivation was investigated for its effect of RARβ induction by all-trans-retinoic acid (tRA), which activates the RA response element (βRARE) in the RARβ promoter through an RAR/RXR heterodimer. […] The βRARE could be also activated by an RXR/PPAR heterodimer. […] Cells were treated for 24 hr with or without with trans-RA (10^-6 M), or SR11237 (10^-6 M), ciglitazone (10.micro.M), sulindac sulfide (100.micro.M) or the indicated combinations. RARβ protein expression was determined by Western analysis.

SMILES: CC1=C(/C=C/C(C)=C\C=C\C(C)=C\C(=O)O)C(C)(C)CCC1 [9-cis-RA]
effect on sulindac sulfide-induced apoptosis [1]: inhibitory effect

RXRα nuclear export ([2]; no conditions given): induce RXRα nuclear export
binding of TR3/RXRα heterodimer to βRARE ([4]; 10^-5 M, 15 min, in vitro translated RXRα and TR3, EMSA): completely abolished
binding of RXRα/TR3 heterodimer to DNA (βRARE), as control in gel-shift screening ([4]; stated for positive/negative control, no concentration): abolishes the heterodimer binding
interaction of RXRα with IKKγ [5]: further promoted
Ki ([6]; read-out: Ki, displacement of [3H]9-cis-RA binding to the RXR ligand-binding domain, 10 nM [3H]9-cis-RA, bacterially purified RXRα LBD): 1.8 µM
SMILES: CCCCC/C=C/C=C1/C(=O)C=C[C@@H]1C/C=C\CCCC(=O)O [15d-PGJ2, 15-Deoxy-.delta^12,14-prostaglandin J2]
transfected Flag-RXRα localization ([2]; H460 lung cancer or SY5Y neuroblastoma cells, 5 μM, 3 hr): significant amount of RXRα was found in the cytoplasm
Flag-RXRα localization ([2]; PC12 cells, 5 μM, 3 hr): migrated from the nucleus to the cytoplasm
GFP-TR3 localization, cotransfected with Flag-RXRα ([3]; PC12 cells, 5 μM, 3 hr): found in the cytoplasm
GFP-TR3 migration to the cytoplasm, TR3 transfected alone ([3]; PC12 cells, 5 μM, 3 hr): did not
induction of RARβ expression by trans-RA ([7]; Calu-6 lung and ZR75-1 breast cancer cells, 15d-PGJ2 5 μM, trans-RA 10^-6 M, 24 h): potently inhibited
RARβ expression in combination with RXR ligands ([7]; used together with RXR ligands): failed to induce

SMILES: CC1(C)CCC(C)(C)c2cc(C3(c4ccc(C(=O)O)cc4)OCCO3)ccc21 [SR11237]
effect on sulindac sulfide-induced apoptosis [1]: inhibitory effect

SMILES: CCCCCCCCCCCCCC(=O)O[C@@H]1[C@@H](C)[C@@]2(O)[C@@H](C=C(CO)C[C@]3(O)C(=O)C(C)=C[C@@H]23)[C@H]2C(C)(C)[C@]12OC(C)=O [TPA, 12-0-tetradecanolphorbol 13-acetate]
nuclear export of GFP fusion with amino acids 348-398 of RXRα [2]: causes the fusion protein to export from the nucleus
RXRα association with mitochondria (overlay with Hsp60) ([2]; LNCaP cells treated with TPA): associates with mitochondria
RXRα localization ([2]; LNCaP prostate cancer cells, endogenous RXRα, TPA treatment): found in the cytoplasm
TR3 and RXRα localization ([3]; LNCaP cells treated with TPA): co-localize to the cytoplasm

GFP-RXRα association with mitochondria (overlay with Mito-RFP) [2]: associated with mitochondria
SMILES: O=C(O)Cc1ccccc1Nc1c(Cl)cccc1Cl [diclofenac]
GFP-RXRα localization [2]: capable of inducing the migration; also recorded: found in the cytoplasm

GFP-RXRα association with mitochondria (overlay with Mito-RFP) [2]: associated with mitochondria
SMILES: COc1ccc2c(c1)c(CC(=O)O)c(C)n2C(=O)c1ccc(Cl)cc1 [indomethacin]
GFP-RXRα localization [2]: capable of inducing the migration; also recorded: found in the cytoplasm

SMILES: CCC(=C/[C@H](C)C/C=C/C(C)=C/[C@@H](C)C(=O)[C@@H](C)[C@H](O)[C@@H](C)C/C(C)=C/C(=O)O)/C=C/[C@@H]1OC(=O)C=C[C@@H]1C [leptomycin-B]
nuclear export of GFP fusion with amino acids 348-398 of RXRα [2]: inhibited

IC50 [6]: ~100 µM
SMILES: CC1=C(CC(=O)O)c2cc(F)ccc2/C1=C\c1ccc([S+](C)[O-])cc1 (stereo not drawn) [sulindac]
apoptosis, cells without RXRα transfection ([1]; CV-1 cells, 75 μM, 24 hr, DAPI staining): little inducing effect
